Paper doi:10.1101/2021.11.15.468710v2 (biorxiv, 2021)

Target: intact V-ATPase (purified yeast V-ATPase) (Saccharomyces cerevisiae, UniProt P23968+P25515+P32563+P32842)
Test: enzyme-coupled ATPase assay
Assay type: biochemical

## CO/C1=C\C(C)=C\[C@@H](C)[C@@H](O)[C@@H](C)C/C(C)=C/C=C/[C@H](OC)[C@@H]([C@@H](C)[C@@H](O)[C@H](C)[C@@]2(O)C[C@@H](O)[C@H](C)[C@@H](C(C)C)O2)OC1=O [bafilomycin A1]
  IC50: < 1.11 nM
